In ChEMBL document CHEMBL1201862, “PubChem BioAssay data set” (2004):
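Briefly, cells in 96-well plates were exposed to five compound concentrations for 48 h, and endpoints were estimated by linear interpolation. Here, GI50 denotes the concentration required for 50% inhibition of growth.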 Calls of active or inactive are those of the source. Rule as the data show it: active = GI50 up to about 1.1 µM and inactive = higher.

Tests used:
Assay in all cases: NCI tumour cell line growth inhibition, 48 h
[1] = system: A549
[2] = system: EKVX
[3] = system: HCC 2998
[4] = system: HL-60
[5] = system: HOP-92
[6] = system: IGROV-1
[7] = system: K562
[8] = system: LOX IMVI
[9] = system: NCI-H522
[10] = system: RPMI-8226
[11] = system: RXF 393
[12] = system: SF-268
[13] = system: SK-MEL-5
[14] = system: SK-OV-3
[15] = system: SW-620
[16] = system: HCT-15
[17] = system: OVCAR-4
[18] = system: SR

Row | Compound | GI50 [1] | GI50 [2] | GI50 [3] | GI50 [4] | GI50 [5] | GI50 [6] | GI50 [7] | GI50 [8] | GI50 [9] | GI50 [10] | GI50 [11] | GI50 [12] | GI50 [13] | GI50 [14] | GI50 [15] | GI50 [16] | GI50 [17] | GI50 [18]
1 | Clc1ccc(C2=NN(c3ccccc3)C3c4cc(Br)ccc4OCC23)cc1 (stereo not given) | > 100 µM (inactive) | > 100 µM (inactive) | > 100 µM (inactive) | 40.8 µM (inactive) | > 100 µM (inactive) | > 100 µM (inactive) | 33.8 µM (inactive) | 64.3 µM (inactive) | > 100 µM (inactive) | 11.6 µM (inactive) | 61.1 µM (inactive) | 53.6 µM (inactive) | 59.7 µM (inactive) | > 100 µM (inactive) | > 100 µM (inactive) |  |  | 
2 | N#CC(N)(C(=O)CCC(=O)Nc1cccc(Cl)c1)c1ccc(Cl)cc1 (stereo not given) | > 100 µM (inactive) | > 100 µM (inactive) |  | > 100 µM (inactive) | > 100 µM (inactive) | > 100 µM (inactive) | > 100 µM (inactive) |  | > 100 µM (inactive) | > 100 µM (inactive) |  | > 100 µM (inactive) | > 100 µM (inactive) | > 100 µM (inactive) | > 100 µM (inactive) | > 100 µM | > 100 µM (inactive) | > 100 µM (inactive)
3 | CCOP(=O)(OCC)C1CC(C)OC1=O (stereo not given) | > 100 µM (inactive) | > 100 µM (inactive) | > 100 µM (inactive) | > 100 µM (inactive) |  | > 100 µM (inactive) | > 100 µM (inactive) | > 100 µM (inactive) |  | > 100 µM (inactive) | > 100 µM (inactive) | > 100 µM (inactive) | > 100 µM (inactive) | > 100 µM (inactive) | > 100 µM (inactive) | > 100 µM | > 100 µM (inactive) | 
4 | O=c1c2cccc3cccc(c4n1CCN=4)c32 | > 100 µM (inactive) | > 100 µM (inactive) |  | 56.8 µM (inactive) | > 100 µM (inactive) | 82.6 µM (inactive) | > 100 µM (inactive) | 32 µM (inactive) | 84.3 µM (inactive) | > 100 µM (inactive) | 42.4 µM (inactive) | > 100 µM (inactive) | > 100 µM (inactive) | 41 µM (inactive) | > 100 µM (inactive) | 85.7 µM | 40.8 µM (inactive) | 25.2 µM (inactive)
5 | Cn1c(=O)nc2n(-c3ccc(Cl)c(C(F)(F)F)c3)c3ccccc3nc-2c1=O | 25.8 µM (inactive) | 35.1 µM (inactive) | 25.6 µM (inactive) | 19.3 µM (inactive) | 40.8 µM (inactive) | 84.1 µM (inactive) | 35.5 µM (inactive) | 35 µM (inactive) | 25.1 µM (inactive) | 33.2 µM (inactive) | 55.7 µM (inactive) | 35.6 µM (inactive) | 13.5 µM (inactive) | > 100 µM (inactive) | 22.9 µM (inactive) | 31.4 µM | 22.2 µM (inactive) | 
6 | C[C@]12CCC3[C@@H](CCC45OC4C(=O)CC[C@]35C)C1Cc1cnn(-c3ccc(F)cc3)c1N2 (stereo not given in full) | 65.5 µM (inactive) | 49.9 µM (inactive) |  | 17.6 µM (inactive) |  |  | 20.9 µM (inactive) | 16.7 µM (inactive) | 15 µM (inactive) | 19.5 µM (inactive) | 27.9 µM (inactive) | 23.6 µM (inactive) | 31.5 µM (inactive) | 58.1 µM (inactive) | 31.8 µM (inactive) | 17.5 µM | > 10 µM (inactive) | 27.2 µM (inactive)
7 | CCC1(C)NN=c2s/c(=C/c3ccc(OC)cc3)c(=O)n2N1 (stereo not given) | > 100 µM (inactive) | > 100 µM (inactive) | > 100 µM (inactive) |  | 17.6 µM (inactive) | > 100 µM (inactive) | > 100 µM (inactive) | > 100 µM (inactive) | > 100 µM (inactive) |  | 49.4 µM (inactive) | 65 µM (inactive) | > 100 µM (inactive) | > 100 µM (inactive) | > 100 µM (inactive) |  | 35.7 µM (inactive) | > 100 µM (inactive)
8 | CCC12CCCC(=O)N1C(CO)C(c1ccccc1)O2 (stereo not given) | > 100 µM (inactive) | > 100 µM (inactive) |  |  | > 100 µM (inactive) | > 100 µM (inactive) | > 100 µM (inactive) | > 100 µM (inactive) |  | > 100 µM (inactive) | > 100 µM (inactive) | > 100 µM (inactive) | > 100 µM (inactive) |  | > 100 µM (inactive) | > 100 µM | > 100 µM (inactive) | > 100 µM (inactive)
9 | CCCN(CCC)CCc1cc(C(C)=O)n(S(=O)(=O)c2ccc(C)cc2)c1 | > 100 µM (inactive) | > 100 µM (inactive) | > 100 µM (inactive) |  | > 100 µM (inactive) | > 100 µM (inactive) | 80.9 µM (inactive) |  | > 100 µM (inactive) | > 100 µM (inactive) |  | > 100 µM (inactive) | 41.4 µM (inactive) | > 100 µM (inactive) | > 100 µM (inactive) | > 100 µM | > 100 µM (inactive) | > 100 µM (inactive)
10 | Cc1ccc(S(=O)(=O)N/N=C2\C=CC3(CC2)C(=O)N(I)c2ccccc23)cc1 (stereo not given) | > 100 µM (inactive) | > 100 µM (inactive) | > 100 µM (inactive) |  | 89.7 µM (inactive) |  | 25.1 µM (inactive) | > 100 µM (inactive) |  | 39.3 µM (inactive) | 15.1 µM (inactive) | 90.6 µM (inactive) | > 100 µM (inactive) | > 100 µM (inactive) | > 100 µM (inactive) | > 100 µM | > 100 µM (inactive) | 86.9 µM (inactive)
11 | COc1c(C(C)C)cc2c3c1OC(=O)[C@@]31CCCC(C)(C)C1CC2 (stereo not given in full) | 13.6 µM (inactive) | 14.6 µM (inactive) | 50.2 µM (inactive) | 14.2 µM (inactive) |  | 23.1 µM (inactive) | 20.4 µM (inactive) | 12.5 µM (inactive) | 9.18 µM (inactive) | 18.9 µM (inactive) | 17.3 µM (inactive) | 28.7 µM (inactive) | 11.2 µM (inactive) | 23.8 µM (inactive) | 26.4 µM (inactive) | 55.7 µM |  | 16.9 µM (inactive)
12 | CC(C)(C)c1cc2ccc(C(N)=O)cc2c(=O)[nH]1 | > 100 µM (inactive) | 82.4 µM (inactive) | > 100 µM (inactive) | 79.8 µM (inactive) | 95.1 µM (inactive) | > 100 µM (inactive) | > 100 µM (inactive) | 62.7 µM (inactive) | > 100 µM (inactive) |  | 44.9 µM (inactive) | > 100 µM (inactive) | > 100 µM (inactive) | > 100 µM (inactive) | > 100 µM (inactive) | > 100 µM | > 100 µM (inactive) | > 100 µM (inactive)
13 | O=C(N/N=C/c1cc(-c2ccccc2Cl)c(-c2ccccc2Cl)o1)c1ccncc1 | > 100 µM (inactive) | > 100 µM (inactive) |  | 89.7 µM (inactive) | > 100 µM (inactive) | > 100 µM (inactive) | > 10 µM (inactive) | > 100 µM (inactive) | 83.6 µM (inactive) | 23.6 µM (inactive) | > 100 µM (inactive) | > 100 µM (inactive) |  | > 100 µM (inactive) | > 100 µM (inactive) |  | > 100 µM (inactive) | 
14 | COc1ccc(CC2=NCCc3cc(OC)c(OC)cc32)cc1Br | 21.6 µM (inactive) | 40.6 µM (inactive) | 14.1 µM (inactive) | 3.1 µM (inactive) | 0.644 µM (active) | > 10 µM (inactive) | 3.66 µM (inactive) | 5.09 µM (inactive) | 12 µM (inactive) |  | 21.1 µM (inactive) | 41.7 µM (inactive) | 12.5 µM (inactive) | 16.9 µM (inactive) | 7.52 µM (inactive) |  | 15.2 µM (inactive) | 11.9 µM (inactive)
15 | CCOc1ccc2c(c1)[n+]([O-])c(-c1ccccc1)c(N)[n+]2[O-] | > 100 µM (inactive) | 89.1 µM (inactive) | 68.5 µM (inactive) | 37 µM (inactive) |  | 82.6 µM (inactive) | 45 µM (inactive) | > 100 µM (inactive) | 16.8 µM (inactive) | > 100 µM (inactive) |  | 36.6 µM (inactive) | 24.3 µM (inactive) | > 100 µM (inactive) | > 100 µM (inactive) | 55.2 µM | > 100 µM (inactive) | 
16 | COC(=O)/C(Cl)=C1/CC1COCc1ccccc1 (stereo not given) | 54.7 µM (inactive) | > 10 µM (inactive) | > 10 µM (inactive) | 13.6 µM (inactive) | 22.9 µM (inactive) | 44.9 µM (inactive) | 17.9 µM (inactive) | > 10 µM (inactive) | 20.3 µM (inactive) | 19.5 µM (inactive) | 18.9 µM (inactive) | 43.8 µM (inactive) | 24.1 µM (inactive) | > 100 µM (inactive) | 21.1 µM (inactive) | 17.1 µM | 31 µM (inactive) | 
17 | Nc1ccc(C(=O)NN2C(=O)C(Cl)C2c2cccc([N+](=O)[O-])c2)cc1 (stereo not given) | 46.3 µM (inactive) | 28.2 µM (inactive) | 24.3 µM (inactive) | 20.7 µM (inactive) | 21.4 µM (inactive) | 14.3 µM (inactive) | 20.8 µM (inactive) | 10.2 µM (inactive) | 12 µM (inactive) | 23.2 µM (inactive) |  | 17 µM (inactive) | 19.2 µM (inactive) | 18.7 µM (inactive) | 21.7 µM (inactive) | 18.6 µM | 16.4 µM (inactive) | 
18 | CC(=O)Nc1ccc(C2CC(c3ccc([N+](=O)[O-])cc3)=Nc3ccccc3[S+]2[O-])cc1 (stereo not given) | 38.4 µM (inactive) | 36.5 µM (inactive) | 16.3 µM (inactive) | 17.6 µM (inactive) |  | 12.7 µM (inactive) | 4.58 µM (inactive) | 14.7 µM (inactive) | 17.3 µM (inactive) | 4.36 µM (inactive) | 17.4 µM (inactive) | 36.6 µM (inactive) | 19.6 µM (inactive) | 27.4 µM (inactive) | 20 µM (inactive) | 20.6 µM | 18.9 µM (inactive) | 
